From US20090069320A1, “Substituted 4-Amino-Quinazoline Compounds with Metabotropic Glutamate Receptor Regulating Activity and Uses Thereof” (Gruenenthal GmbH, priority 2006, published 2009)

Experiments:
mGluR5 receptor (human) = target: T1, mGluR5 receptor (human) (Homo sapiens, UniProt P41594); assay: Functional Ca2+ influx assay in CHO-hmGluR5 cells (DHPG 10 μM, FLIPR); assay type: cell-based
T1 construct: host or cells: CHO
Experimental: V. Functional Ca^2+ Influx Assay
20,000 CHO-hmGluR5 cells/well (Euroscreen, Gosselies, Belgium) are pipetted into 96-well plates (BD Biosciences, Heidelberg, Germany, Ref. 356640, clear bottom, 96-well, poly-D-lysine) and incubated overnight in HBSS buffer (Gibco 14025-050) with the following additions: 10% FCS (GIBCO, 10270-106) and doxycycline (BD Biosciences Clontech 631311 600 ng/ml).
For the functional study the cells were charged with 2 μM of Fluo-4 and 0.01% by vol. pluronic F127 (Molecular Probes Europe BV, Leiden, The Netherlands) in HBSS buffer (Hank's buffered saline solution, Gibco Invitrogen GmbH, Karlsruhe, Germany) with probenicide (Sigma P8761, […]) for 30 min. at 37° C.
The cells are then washed 3 times with washing buffer (HBSS buffer, Gibco No. 14025-050), with probenicide (Sigma P8761, 0.69 mg/ml) and then taken up with the same buffer ad 100 μl. After 15 min. the plates for determining the Ca^2+ measurements in the presence of DHPG ((S)-3,5-dihydroxyphenylglycine, Tocris Biotrend Chemikalien GmbH, Cologne, Germany, final DHPG concentration: 10 μM) and also in the presence or absence of test substances are transferred into a fluorometric imaging plate reader (FLIPR, Molecular Devices, Sunnyvale, Calif.).
The Ca^2+-dependent fluorescence is measured before and after the addition of test substances. The quantification occurs through the measurement of the highest fluorescence intensity over time. After the fluorescence base line has been recorded for 10 sec. 50 μl of test substance solution (different test substance concentrations in HBSS buffer with 1% DMSO and 0.02% Tween 20, Sigma) are added and the fluorescence signal is measured for 6 min. 50 μl of DHPG solution ((S)-3,5-dihydroxyphenylglycine, Tocris Biotrend Chemikalien GmbH, Cologne, Germany, final DHPG concentration: 10 μM) are then added and the influx of Ca^2+ is measured simultaneously for 60 sec. The final DMSO concentration amounts to 0.25% and the final Tween 20 content amounts to 0.005%. The data are analysed with Microsoft Excel and GraphPad Prism. The dose effect curves are calculated with non-linear regression and IC50 values determined. Each data point is determined 3 times and IC50 values are averaged from a minimum of 2 independent measurements. Ki values are calculated according to the following formula:
Ki=IC50/(1+(AGconc./EC50)).
AGconc.=10 μM; EC50 corresponds to the DHPG concentration necessary for the half-maximum influx of Ca^2+.

mGluR5 receptor = target: T2, mGluR5 receptor (Sus scrofa, UniProt I3LUI7); assay: [3H]-MPEP mGluR5 receptor binding assay (pig brain homogenate); details: 5 nM [3H]-MPEP, read-out: IC50 mGluR5 Receptor (pig) [^3H]-MPEP Bond
T2 construct: 450 μg of protein from brain homogenate with 5 nM ^3[H]-MPEP; from tissue; host or cells: pig brain halves without medulla, cerebellum and pons
T2 sequence (I3LUI7 19-1212): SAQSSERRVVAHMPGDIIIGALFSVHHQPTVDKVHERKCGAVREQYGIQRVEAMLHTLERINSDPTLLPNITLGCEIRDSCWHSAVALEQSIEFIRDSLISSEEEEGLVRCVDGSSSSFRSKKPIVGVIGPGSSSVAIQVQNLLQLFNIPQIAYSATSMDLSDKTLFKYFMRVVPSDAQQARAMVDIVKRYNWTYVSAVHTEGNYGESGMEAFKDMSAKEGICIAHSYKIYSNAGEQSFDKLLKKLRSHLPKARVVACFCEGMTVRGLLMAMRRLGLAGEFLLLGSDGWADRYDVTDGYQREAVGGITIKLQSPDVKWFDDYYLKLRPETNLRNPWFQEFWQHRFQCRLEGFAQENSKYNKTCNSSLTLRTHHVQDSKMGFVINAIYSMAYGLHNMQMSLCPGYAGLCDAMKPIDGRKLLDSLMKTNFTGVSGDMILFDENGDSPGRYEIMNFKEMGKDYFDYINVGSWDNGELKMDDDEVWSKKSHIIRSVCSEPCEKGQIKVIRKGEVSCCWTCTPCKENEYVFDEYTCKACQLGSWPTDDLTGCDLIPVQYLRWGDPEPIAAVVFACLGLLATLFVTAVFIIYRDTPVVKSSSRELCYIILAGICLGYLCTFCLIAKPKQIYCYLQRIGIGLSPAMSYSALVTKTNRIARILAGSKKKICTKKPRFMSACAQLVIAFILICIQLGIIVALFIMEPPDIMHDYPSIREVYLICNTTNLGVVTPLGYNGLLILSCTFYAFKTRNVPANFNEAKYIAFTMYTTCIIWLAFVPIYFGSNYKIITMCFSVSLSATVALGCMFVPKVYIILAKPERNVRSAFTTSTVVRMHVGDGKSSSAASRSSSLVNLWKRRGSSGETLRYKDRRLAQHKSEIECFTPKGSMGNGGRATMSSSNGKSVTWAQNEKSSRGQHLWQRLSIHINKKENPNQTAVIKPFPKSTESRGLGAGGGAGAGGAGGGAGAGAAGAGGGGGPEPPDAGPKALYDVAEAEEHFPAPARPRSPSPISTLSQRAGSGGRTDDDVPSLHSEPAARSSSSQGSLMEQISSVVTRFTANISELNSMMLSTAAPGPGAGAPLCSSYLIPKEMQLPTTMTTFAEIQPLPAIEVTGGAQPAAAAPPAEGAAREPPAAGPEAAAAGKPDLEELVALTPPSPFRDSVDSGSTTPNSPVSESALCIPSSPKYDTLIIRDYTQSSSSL
Outline: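 Compounds at 10 μM competed with 5 nM [3H]-MPEP for binding to pig brain membranes (450 μg protein) for 60 min at room temperature in pH 8.0 Hepes buffer. Bound radioactivity was collected on glass-fibre filters and read by β-counting, with 10 μM unlabelled MPEP giving non-specific binding.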

Formalin test on rats = assay type: in vivo, rat
Experimental: IIa. Formalin Test on Rats:
The formalin test (Dubuisson, D. and Dennis, S. G., 1977, Pain, 4, 161-174) represents a model for acute as well as chronic pain. By a single formalin injection into the dorsal side of a rear paw a biphase nociceptive reaction is inducted in free-moving test animals that is detected by observation of three clearly distinguishable behavior patterns. The reaction is two-phase: phase I=immediate reaction (duration up to 10 min.; paw shaking, licking), phase 2=late reaction (after a resting phase; likewise paw shaking, licking; duration up to 60 min.). The first phase reflects a direct stimulation of the peripheral nocisensors with high spinal nociceptive input or glutamate release (acute pain phase); the second phase reflects a spinal and peripheral hypersensitisation (chronic pain phase). The chronic pain component (phase 2) was evaluated in the studies presented here.
Formalin is applied subcutaneously in a volume of 50 μl and a concentration of 5% into the dorsal side of the right rear paw of each animal. […] The specific changes in behavior such as lifting and shaking of the paw, shifting weight of the animal as well as biting and licking reactions are observed and recorded in the observation period of 21 to 27 min. after the formalin injection. […]

T1 sequence (P41594 21-1212): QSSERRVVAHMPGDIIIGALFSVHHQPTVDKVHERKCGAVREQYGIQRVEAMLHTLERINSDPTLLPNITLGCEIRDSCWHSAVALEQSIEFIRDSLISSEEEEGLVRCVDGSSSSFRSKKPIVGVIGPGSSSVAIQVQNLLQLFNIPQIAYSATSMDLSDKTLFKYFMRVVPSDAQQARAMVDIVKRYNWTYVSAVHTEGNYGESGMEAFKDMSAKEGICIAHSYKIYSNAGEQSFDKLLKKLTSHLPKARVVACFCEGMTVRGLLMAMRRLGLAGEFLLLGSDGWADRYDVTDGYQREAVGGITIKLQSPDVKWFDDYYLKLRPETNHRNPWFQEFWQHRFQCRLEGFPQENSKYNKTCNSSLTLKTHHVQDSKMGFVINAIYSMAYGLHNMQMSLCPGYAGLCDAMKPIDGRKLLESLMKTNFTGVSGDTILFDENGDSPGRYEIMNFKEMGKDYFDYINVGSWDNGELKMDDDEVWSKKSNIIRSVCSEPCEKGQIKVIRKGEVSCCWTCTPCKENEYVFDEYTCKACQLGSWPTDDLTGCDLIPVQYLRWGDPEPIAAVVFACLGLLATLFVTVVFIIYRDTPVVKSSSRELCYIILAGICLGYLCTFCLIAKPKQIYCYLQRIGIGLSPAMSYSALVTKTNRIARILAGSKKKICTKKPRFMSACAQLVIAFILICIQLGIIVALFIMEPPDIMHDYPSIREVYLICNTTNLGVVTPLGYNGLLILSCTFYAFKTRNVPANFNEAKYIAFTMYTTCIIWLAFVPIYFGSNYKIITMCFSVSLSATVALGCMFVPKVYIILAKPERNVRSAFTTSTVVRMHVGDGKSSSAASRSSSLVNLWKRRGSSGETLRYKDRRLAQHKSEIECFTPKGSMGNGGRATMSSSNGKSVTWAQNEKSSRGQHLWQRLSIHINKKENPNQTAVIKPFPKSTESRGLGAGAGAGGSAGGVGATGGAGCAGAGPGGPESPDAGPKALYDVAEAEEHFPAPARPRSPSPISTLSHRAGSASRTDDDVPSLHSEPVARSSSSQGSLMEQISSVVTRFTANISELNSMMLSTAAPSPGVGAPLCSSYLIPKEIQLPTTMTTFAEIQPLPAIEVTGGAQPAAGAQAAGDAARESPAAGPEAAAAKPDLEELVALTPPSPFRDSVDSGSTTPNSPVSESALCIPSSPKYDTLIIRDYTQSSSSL

Ki (mGluR5 receptor (human)) [nM] | IC50 (mGluR5 receptor) [nM] | Compound | Formalin Test (Formalin test on rats; 10 mg/kg i.v.) [% effect at] | Formalin Test (Formalin test on rats; 2.15 mg/kg i.v.) [% effect at]
0.8 | 30 | CC(=O)N(Cc1cc(-c2ccc3ncnc(NC4CC4)c3c2)ccc1F)C1CC1 [Example 260, N-cyclopropyl-N-[5-(4-cyclopropylamino-quinazolin-6-yl)-2-fluoro-benzyl]-acetamide] | 80 | –
2.7 | 30 | CC(C)(C)Nc1ncnc2ccc(-c3ccc(F)c(CN(C(=O)CC#N)C4CC4)c3)cc12 [Example 201, N-[5-(4-tert-butylamino-quinazolin-6-yl)-2-fluoro-benzyl]-2-cyano-N-cyclopropyl-acetamide] | – | 46
